From patent US3952050A, “Cyclopent [a] indene compounds” (Allen & Hanburys Limited, priority 1972, dated 1976) come the findings set out here.

Broadly, the ED50 is the midpoint of the dose-response relation.

Counter-ions that a name gives are not always drawn. Bounds are passed on as bounds.

Common to all, as to format: in vivo
In one test the test system is Dog Tooth-pulp. The test is described as follows: Dog Tooth-pulp Stimulation test (analgetic action). Conditions: Canis lupus familiaris, po, read-out: Minimum effective dose, Dog Tooth-pulp Stimulation. From the text:
(§1) Particularly preferred meanings for the groups R1 and R2 are hydrogen C1-4 alkyl, in particular methyl, or benzyl. Particularly preferred meanings for R3 are hydrogen or C1-4alkyl in particular methyl. Particularly preferred meanings for R5 and R6 are hydrogen, C1-4 alkyl substituted by C1-4 alkylamino or by C1-4 dialkylamino or by phenyl or by 4-fluorobenzoyl or in which the groups together with the adjacent nitrogen atom form a morpholino or piperidino moiety; another preferred group for R5 or R6 is carbamoyl (--CONH2). Specific preferred compounds and salts are those the preparation of which is described in the Examples. The compounds of the invention have marked analgetic activity and are devoid of respiratory depressant action. […] These characteristics are often associated with non-narcotic analgetics in man. For example, in Table I, the compound 1,2,3,3aα,8,8aα-hexahydro-N-methylcyclopent[a]inden-1α-amine, maleate (AH 9197) and the diastero-isomer 1,2,3,3aα,-8,8aα-hexahydro-N-methylcyclopent[a]inden-1β-amine maleate (AH 8538) are compared with codeine in standard pharmacological tests for evaluating analgetic action. The N-ethyl analogue of AH 9197 (N-ethyl-1,2,3,3aα,8,8aα-hexahydrocyclopent[a]inden-1α-amine) maleate (AH 9903) is also included.

The nature of test [1]: Phenylquinone Writhing test (analgetic action). The conditions noted are these: po.
Text: as §1
(In general: In writhing tests, fewer writhes than in controls are read as antinociception.)

The nature of test [2]: Hot plate test (analgetic action).
Text: as §1
In general terms: Hot-plate and tail-flick tests time the reaction to a heat stimulus.

Turning to `CN[C@H]1CC[C@@H]2c3ccccc3C[C@H]12` (relative stereo) [Ex. 1, 1,2,3,3aα,8,8aα-Hexahydro-N-methylcyclopent[a]inden-1α-amine, maleate], in the test with Dog Tooth-pulp, the minimal effective dose came to 3.7 mg/kg. Also, the ED50 in test [1] worked out at 7.4 mg/kg; in test [2] (po), 10 mg/kg; in test [2] (sc) it was 0.44 mg/kg.
Taken in the same sequence, the figures for `CCN[C@H]1CC[C@@H]2c3ccccc3C[C@H]12` (relative stereo) [Ex. 2, N-Ethyl-1,2,3,3aα,8,8aα-hexahydrocyclopent[a]inden-1α-amine, maleate] were below 5 mg/kg, 4.6 mg/kg, 9.5 mg/kg and 2.2 mg/kg.
`CN[C@@H]1CC[C@@H]2c3ccccc3C[C@@H]21` (relative stereo) [Ex. 3, 1,2,3,3aα,8,8aα -Hexahydro-N-methylcyclopent[a]inden-1β-amine, maleate]: the minimal effective dose with Dog Tooth-pulp was 5 mg/kg. Further, the values for the ED50 in test [1] and in test [2] (sc) were 11.9 mg/kg and 15 mg/kg, respectively.
Turning to `COc1ccc2c3c1O[C@H]1[C@@H](O)C=C[C@H]4[C@@H](C2)N(C)CC[C@@]341` [Codeine, codeine, reference compound], in the test on Dog Tooth-pulp, the minimal effective dose amounted to 3.3 mg/kg. In addition, the ED50 came to 5.8 mg/kg in test [1], 15.5 mg/kg in test [2] (po) and 11.8 mg/kg in test [2] (sc).
